Values joined by “and” are separate entries in the source; they are usually repeats but may differ in a detail not shown here. Equal entries are not always repeated. Numbers after ± are expanded uncertainties.
Settings: Liquid, Transpiration method

Compound	vapor or sublimation pressure (293.2 K)	vapor or sublimation pressure (295.2 K)	vapor or sublimation pressure (298.3 K)	vapor or sublimation pressure (301.2 K)	vapor or sublimation pressure (306.2 K)	vapor or sublimation pressure (311.2 K)	vapor or sublimation pressure (313.2 K)	vapor or sublimation pressure (316.3 K)	vapor or sublimation pressure (318.2 K)	vapor or sublimation pressure (321.3 K)	vapor or sublimation pressure (323.2 K)	vapor or sublimation pressure (328.2 K)	vapor or sublimation pressure (303.2 K)	vapor or sublimation pressure (311.3 K)	vapor or sublimation pressure (313.3 K)	vapor or sublimation pressure (318.3 K)	vapor or sublimation pressure (293.3 K)	vapor or sublimation pressure (298.1 K)	also measured
Cc1ccc(OCC(C)C)c(Br)c1 [2-bromo-1-isobutoxy-4-methylbenzene]	0.0006 ± 3e-05 kPa	0.00076 ± 4e-05 kPa	0.00103 ± 5e-05 kPa	0.00132 ± 7e-05 kPa	0.00213 ± 0.00011 kPa	0.00322 ± 0.00017 kPa	0.00385 ± 0.00021 kPa	0.00506 ± 0.00027 kPa	0.00591 ± 0.00031 kPa	0.00752 ± 0.0004 kPa and 0.00762 ± 0.0004 kPa	0.00914 ± 0.00048 kPa and 0.00897 ± 0.00047 kPa and 0.00883 ± 0.00047 kPa	0.01293 ± 0.00067 kPa							vapor or sublimation pressure (300.2 K): 0.0012 ± 6e-05 kPa; vapor or sublimation pressure (303.1 K): 0.0016 ± 8e-05 kPa; vapor or sublimation pressure (303.8 K): 0.00167 ± 9e-05 kPa; vapor or sublimation pressure (306.1 K): 0.00208 ± 0.00011 kPa; vapor or sublimation pressure (308.2 K): 0.00261 ± 0.00014 kPa; vapor or sublimation pressure (309.1 K): 0.00271 ± 0.00014 kPa; vapor or sublimation pressure (311.1 K): 0.00328 ± 0.00017 kPa; vapor or sublimation pressure (318.7 K): 0.00622 ± 0.00033 kPa; vapor or sublimation pressure (321.2 K): 0.00746 ± 0.00039 kPa; vapor or sublimation pressure (326.2 K): 0.01113 ± 0.00058 kPa
CC(C)COc1ccc(Br)cc1 [1-bromo-4-isobutoxybenzene]	0.00151 ± 8e-05 kPa		0.00242 ± 0.00013 kPa	0.00304 ± 0.00016 kPa	0.0048 ± 0.00025 kPa					0.01498 ± 0.00078 kPa	0.01699 ± 0.0009 kPa	0.02634 ± 0.0014 kPa	0.00351 ± 0.00019 kPa	0.00687 ± 0.00036 kPa	0.0081 ± 0.00043 kPa	0.01175 ± 0.00062 kPa			vapor or sublimation pressure (308.4 K): 0.00538 ± 0.00028 kPa; vapor or sublimation pressure (316.2 K): 0.0101 ± 0.00053 kPa; vapor or sublimation pressure (326.3 K): 0.0224 ± 0.0012 kPa; vapor or sublimation pressure (331.2 K): 0.03352 ± 0.0018 kPa; vapor or sublimation pressure (333.2 K): 0.0391 ± 0.002 kPa
CC(C)COc1cccc(Br)c1 [1-bromo-3-isobutoxybenzene]		0.00232 ± 0.00012 kPa			0.00607 ± 0.00032 kPa		0.0106 ± 0.00056 kPa			0.01929 ± 0.001 kPa	0.02231 ± 0.0012 kPa		0.00465 ± 0.00025 kPa	0.00909 ± 0.00048 kPa		0.01567 ± 0.00082 kPa	0.00194 ± 0.0001 kPa	0.00301 ± 0.00016 kPa	vapor or sublimation pressure (290.2 K): 0.00145 ± 8e-05 kPa; vapor or sublimation pressure (301.1 K): 0.00389 ± 0.0002 kPa; vapor or sublimation pressure (308.1 K): 0.00703 ± 0.00037 kPa; vapor or sublimation pressure (316.1 K): 0.01312 ± 0.00069 kPa
CC(C)COc1ccccc1Br [1-bromo-2-isobutoxybenzene]				0.00423 ± 0.00022 kPa	0.00634 ± 0.00033 kPa	0.00954 ± 0.0005 kPa		0.01398 ± 0.00073 kPa	0.01628 ± 0.00085 kPa	0.02031 ± 0.001 kPa	0.02325 ± 0.0012 kPa				0.01119 ± 0.00059 kPa		0.00213 ± 0.00011 kPa	0.00325 ± 0.00017 kPa	vapor or sublimation pressure (295.3 K): 0.00252 ± 0.00013 kPa; vapor or sublimation pressure (303.3 K): 0.00511 ± 0.00027 kPa; vapor or sublimation pressure (308.3 K): 0.00753 ± 0.0004 kPa

From the NIST ThermoML archive (doi:10.1016/j.fluid.2004.11.024)
